Source: patent US20110152313A1 (MACQUARIE UNIVERSITY, priority 2008, published 2011)

Tests used:
Experiment in all cases: kinase binding screen (kinase-tagged T7 phage, qPCR), % Ctrl
CAMK1G = CAMK1G (Homo sapiens, UniProt Q96NX5)
Description: (§1) Percentage kinase inhibition at a set concentration was performed by methods well known in the prior art (Fabian, M. A. et al. Nat. Biotechnol. 2005, 23, 329; Karaman et al. (2008) Nat. Biotechnol. […], 26, 127). Briefly, kinase-tagged T7 phage strains were grown in parallel in 24-well blocks in an E. coli host derived from the BL21 strain. E. coli were grown to log-phase and infected with T7 phage from a frozen stock (multiplicity of infection=0.4) and incubated with shaking at 32° C. until lysis (90-150 minutes). The lysates were centrifuged (6,000×g) and filtered (0.2 μm) to remove cell debris. […] The liganded beads were blocked with excess biotin and washed with blocking buffer (SeaBlock (Pierce); 1% BSA, 0.05% Tween 20, 1 mM DTT) to remove unbound ligand and to reduce non-specific phage binding. […] Test compounds were prepared as 40× stocks in 100% DMSO and directly diluted into the assay. All reactions were performed in polypropylene 384-well plates in a final volume of 0.04 mL. […] The kinase concentration in the eluates was measured by qPCR.

CDK7 = CDK7 (Homo sapiens, UniProt P50613)
Description: as §1

ULK3 = biological target: T1, ULK3 (Homo sapiens, UniProt Q6PHR2)
T1 sequence (Q6PHR2 1-472): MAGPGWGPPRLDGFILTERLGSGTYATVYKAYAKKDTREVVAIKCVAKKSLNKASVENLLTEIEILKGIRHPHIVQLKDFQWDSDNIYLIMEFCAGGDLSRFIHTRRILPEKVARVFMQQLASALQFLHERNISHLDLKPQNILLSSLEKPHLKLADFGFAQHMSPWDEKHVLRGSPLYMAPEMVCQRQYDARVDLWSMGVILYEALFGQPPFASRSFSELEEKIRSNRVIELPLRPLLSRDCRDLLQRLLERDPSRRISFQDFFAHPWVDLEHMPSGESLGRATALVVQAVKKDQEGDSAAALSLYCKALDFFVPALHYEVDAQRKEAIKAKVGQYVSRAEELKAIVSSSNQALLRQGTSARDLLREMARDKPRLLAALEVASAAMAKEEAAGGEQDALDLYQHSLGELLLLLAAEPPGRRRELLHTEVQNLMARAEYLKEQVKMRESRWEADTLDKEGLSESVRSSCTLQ
Description: as §1

[1] = biological target: T2, RPS6KA6(Kin.Dom.2-C-terminal) (Homo sapiens, UniProt Q9UK32)
T2 sequence (Q9UK32 426-683 limits assumed): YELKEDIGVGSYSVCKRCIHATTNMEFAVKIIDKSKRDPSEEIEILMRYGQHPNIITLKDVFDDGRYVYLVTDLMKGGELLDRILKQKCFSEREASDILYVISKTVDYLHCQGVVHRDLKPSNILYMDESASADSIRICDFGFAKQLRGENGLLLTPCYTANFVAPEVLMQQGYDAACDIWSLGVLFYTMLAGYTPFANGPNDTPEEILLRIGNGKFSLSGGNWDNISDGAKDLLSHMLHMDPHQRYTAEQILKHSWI
Description: as §1

SBK1 = SBK1 (Homo sapiens, UniProt Q52WX2)
Description: as §1

CDKL5 = biological target: T3, CDKL5 (Homo sapiens, UniProt O76039)
T3 sequence (O76039 1-960): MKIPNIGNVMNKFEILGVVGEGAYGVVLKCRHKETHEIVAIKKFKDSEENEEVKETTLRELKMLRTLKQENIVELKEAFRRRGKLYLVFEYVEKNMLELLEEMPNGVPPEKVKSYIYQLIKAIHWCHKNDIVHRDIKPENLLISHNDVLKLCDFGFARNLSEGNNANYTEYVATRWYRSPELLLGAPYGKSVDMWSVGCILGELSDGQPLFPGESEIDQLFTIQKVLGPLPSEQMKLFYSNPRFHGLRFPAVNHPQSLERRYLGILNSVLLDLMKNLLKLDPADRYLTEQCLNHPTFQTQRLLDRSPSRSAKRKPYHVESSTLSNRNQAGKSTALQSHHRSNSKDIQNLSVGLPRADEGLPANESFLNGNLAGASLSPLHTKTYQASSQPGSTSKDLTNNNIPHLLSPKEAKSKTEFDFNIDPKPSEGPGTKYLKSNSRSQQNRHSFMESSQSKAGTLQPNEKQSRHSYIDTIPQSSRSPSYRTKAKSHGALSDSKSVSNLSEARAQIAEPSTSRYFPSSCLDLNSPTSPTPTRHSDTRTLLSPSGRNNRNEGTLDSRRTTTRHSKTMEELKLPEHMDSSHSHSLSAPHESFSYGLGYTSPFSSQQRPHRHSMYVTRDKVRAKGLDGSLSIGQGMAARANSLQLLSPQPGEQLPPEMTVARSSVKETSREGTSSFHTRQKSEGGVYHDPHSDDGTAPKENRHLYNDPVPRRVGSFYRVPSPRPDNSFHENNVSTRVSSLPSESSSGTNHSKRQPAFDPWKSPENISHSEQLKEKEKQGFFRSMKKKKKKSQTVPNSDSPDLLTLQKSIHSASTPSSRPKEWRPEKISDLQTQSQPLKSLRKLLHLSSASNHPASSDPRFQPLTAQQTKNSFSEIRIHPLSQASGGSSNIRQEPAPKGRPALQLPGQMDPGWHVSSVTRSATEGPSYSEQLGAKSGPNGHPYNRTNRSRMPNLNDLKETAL
Description: as §1

Sequence of CDK7 (P50613 whole entry): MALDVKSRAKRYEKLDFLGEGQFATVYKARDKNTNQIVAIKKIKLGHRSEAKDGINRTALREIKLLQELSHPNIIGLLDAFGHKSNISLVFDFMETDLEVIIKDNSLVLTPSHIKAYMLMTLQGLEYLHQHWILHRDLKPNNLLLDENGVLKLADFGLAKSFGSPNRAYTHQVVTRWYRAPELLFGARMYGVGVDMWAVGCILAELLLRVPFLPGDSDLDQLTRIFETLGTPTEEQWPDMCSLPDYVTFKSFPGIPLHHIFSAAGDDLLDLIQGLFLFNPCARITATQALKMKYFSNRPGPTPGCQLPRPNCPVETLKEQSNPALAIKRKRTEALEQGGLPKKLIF
Sequence of SBK1 (Q52WX2 whole entry): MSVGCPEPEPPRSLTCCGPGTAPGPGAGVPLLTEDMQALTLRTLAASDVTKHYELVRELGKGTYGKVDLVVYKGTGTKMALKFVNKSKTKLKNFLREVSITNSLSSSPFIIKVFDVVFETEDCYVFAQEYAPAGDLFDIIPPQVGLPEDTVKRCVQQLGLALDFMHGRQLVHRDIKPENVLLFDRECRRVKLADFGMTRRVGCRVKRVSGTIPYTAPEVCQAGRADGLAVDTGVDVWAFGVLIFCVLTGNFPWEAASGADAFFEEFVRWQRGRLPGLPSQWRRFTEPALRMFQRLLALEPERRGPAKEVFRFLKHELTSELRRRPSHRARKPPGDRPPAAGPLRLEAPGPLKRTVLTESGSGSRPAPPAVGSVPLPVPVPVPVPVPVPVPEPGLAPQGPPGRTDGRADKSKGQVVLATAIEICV
Sequence of CAMK1G (Q96NX5 whole entry): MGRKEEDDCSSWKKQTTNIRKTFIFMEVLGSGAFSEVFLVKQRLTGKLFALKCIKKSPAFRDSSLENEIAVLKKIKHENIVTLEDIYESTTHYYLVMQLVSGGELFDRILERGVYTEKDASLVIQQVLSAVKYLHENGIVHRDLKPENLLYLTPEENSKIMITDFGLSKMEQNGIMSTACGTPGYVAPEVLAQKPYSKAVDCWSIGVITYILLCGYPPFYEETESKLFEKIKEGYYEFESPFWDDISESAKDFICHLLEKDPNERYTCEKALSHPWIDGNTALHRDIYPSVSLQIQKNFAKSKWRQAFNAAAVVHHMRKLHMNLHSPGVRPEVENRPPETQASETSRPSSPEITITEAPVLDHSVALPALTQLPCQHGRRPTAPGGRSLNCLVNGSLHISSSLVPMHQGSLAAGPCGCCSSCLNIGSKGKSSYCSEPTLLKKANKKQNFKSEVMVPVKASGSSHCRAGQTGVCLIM

Row | remaining activity at 10 µM (CAMK1G; 10 μM) [%] | remaining activity at 10 µM (CDK7; 10 μM) [%] | remaining activity at 10 µM (ULK3; 10 μM) [%] | remaining activity at 10 µM ([1]; 10 μM) [%] | remaining activity at 10 µM (SBK1; 10 μM) [%] | remaining activity at 10 µM (CDKL5; 10 μM) [%] | SMILES | remaining activity at 1 µM (CAMK1G) [%] | remaining activity at 1 µM (CDK7) [%] | remaining activity at 1 µM (ULK3) [%] | remaining activity at 1 µM [1] [%] | remaining activity at 1 µM (SBK1) [%] | remaining activity at 1 µM (CDKL5) [%]
1 | 96 | 66 | 81 | 34 | 77 | 40 | Nc1nc2c(-c3cc(Br)c(Br)[nH]3)nccc2[nH]1 [Ageladine A, ageladine A, reference compound] | 100 | 79 | 82 | 51 | 87 | 54
2 |  |  |  |  |  |  | Nc1nc2c(-c3ccccn3)nccc2[nH]1 [drawing 35, 4-(pyrid-2-yl)-1H-imidazo[4,5-c]pyridin-2-amine] | 43 | 30 | 51 | 49 | 53 | 50
3 |  |  |  |  |  |  | Nc1nc2c(-c3cnc4ccccc4c3)nccc2[nH]1 [drawing 36, 4-(quinolin-3-yl)-1H-imidazo[4,5-c]pyridin-2-amine] | 100 | 100 | 87 | 100 | 100 | 54
